Like-named read-outs stand apart in the source and are kept apart here.
Tests used:
[1] = target: human Cdc7/human ASK complex protein (Homo sapiens (Human), UniProt O00311); experiment: Inhibitory effect on Cdc7 protein kinase (MSA assay kit); format: biochemical
Protocol: [Inhibitory Effect on Cdc7 Protein Kinase]
Measurement of kinase activity was carried out using an MSA assay kit (QuickScout Screening Assist™ Kit, Carna Biosciences, Inc.).
Assay buffer (20 mM HEPES, 0.01% Triton X-100™, 2 mM dithiothreitol, pH 7.5) was used to prepare a substrate mixture solution comprising 4 μM of a kinase-reaction substrate (FITC-labeled MCM2 peptide), 40 mM MgCl2, and 20 μM ATP.
The enzyme supplied in the kit (human Cdc7/human ASK complex protein) was diluted in the assay buffer so as to be at 7 nM, thereby preparing an enzyme solution.
The stock solution of each test compound was diluted in DMSO to prepare diluted DMSO solutions of 10 concentrations (0.00003 mM, 0.0001 mM, 0.0003 mM, 0.001 mM, 0.003 mM, 0.01 mM, 0.03 mM, 0.1 mM, 0.3 mM, 1 mM), each of which was further diluted 25 times in the assay buffer to make a drug solution (a solution containing 4% DMSO).
The kinase reaction was performed in wells of a polypropylene 384-well plate in which 5 μl of each of the drug solutions or of a solvent (assay buffer containing 4% DMSO), 5 μl of the substrate mixture solution, and 10 μl of the enzyme solution were mixed. The assay buffer, instead of the enzyme solution, was added to blank wells. After the reaction at room temperature for 5 hours, 60 μl of the termination buffer supplied in the kit was added to each well to stop the reaction. The percent inhibition of each reaction was determined using a LabChip EZ Reader II system (manufactured by Caliper Life Sciences), according to the protocol provided with the assay kit. In this case, the peak heights of the separated substrate and the phosphorylated substrate were represented as S and P, respectively, and the percent inhibition (%) by a tested compound was calculated according to the following formula: Percent inhibition(%)=(1−(C−A)/(B−A))×100 wherein A denotes P/(P+S) for a blank well, B denotes P/(P+S) for a solvent well, and C denotes P/(P+S) for a compound-added well.
The IC50 value of a tested compound was calculated by regression analysis of the percent inhibition values versus the (logarithmic) concentrations of the tested compound.

[2] = tested on: MCM2 phosphorylation in COLO205 cells; experiment: Inhibitory effect on MCM2 phosphorylation using cells (Western blot); format: cell-based; conditions: Homo sapiens, COLO 205, 0.1 μM test compound, 24 hours, class by percent phosphorylation of MCM2, read-out: Test Example 2 Inhibitory effect on MCM2 phosphorylation
Protocol: [Inhibitory Effect on Phosphorylation Using Cells]
COLO205 cells derived from human colon adenocarcinoma (RCB2127, RIKEN BRC) were cultured in 10 cm dishes using RPMI-1640 medium (SIGMA, R8758) supplemented with 10% FCS (Equitech-bio) and 5% penicillin/streptomycin (GIBCO, 15140). After the cells were cultured to a confluence of 70 to 90%, the medium was removed, and the cells were treated with trypsin (2 mL, TrypLE Express, GIBCO, 12604-021) and then harvested using a new medium.
COLO205 cells were seeded in 6-well plates (FALCON, 35046) to 2.5×10^5 cells (1 ml) per well and cultured overnight in a 5% CO2 incubator. A drug solution, which was prepared by adding 1.5 μl of a 0.1-mM stock solution in DMSO of a test compound to 500 μl of medium, was added to each well (to a final drug concentration of 0.1 μM), and then cultured for another 24 hours.
Cells were cultured for 24 hours in the presence of a test compound, harvested using a similar way as described above, washed with PBS, and then pelletized and stored at −80° C. The frozen cells were thawed, subsequently suspended immediately in 2×SDS-PAGE electrophoresis buffer (1×10^5 cells per 10 μl), and heated at 95° C. for 10 minutes, leading to the dissolution and denaturation of the proteins. The resulting sample solutions were subjected to SDS-PAGE using a 5-20% gradient acrylamide gel (e-PAGEL (5-20%), ATTO, E-T520L). After the electrophoresis was completed, the gel was immersed in tris-glycine buffer supplemented with 20% methanol, and the proteins in the gel were transferred onto a PVDF membrane (MILLIPORE, Immobilon-P, IPVH00010) using a semi-dry transfer apparatus (TRNS-BLOT SD SEMI-DRY […] CELL, BIO RAD).
The transferred PVDF membrane was blocked with 5% skim milk (Difco Skim Milk, BD, 232100), and then subjected to reaction with an anti-MCM2 goat antibody (N-19, Santa Cruz, sc-9839) or anti-phosphorylated MCM2 rabbit antibody (S53) (Bethyl, A300-756A) as a primary antibody and additionally with an anti-α tubulin mouse antibody (Clone DM 1A, SIGMA, 9026) as an internal control. Each band was detected by chemiluminescence using an HRP-labeled anti-goat IgG donkey antibody (Santa Cruz, sc2020), anti-rabbit IgG sheep antibody (Roche, 12015218001), or anti-mouse IgG donkey antibody (Jackson ImmunoResearch, 715-035-151) as a secondary antibody. The combinations of and the diluted concentrations of the primary and secondary antibodies were as indicated below.
The bands which were detected were normalized using the amount of endogenous α-tubulin as a reference, and the percent phosphorylation of MCM2 was calculated for each of the tested compounds. Their inhibitory effects on MCM2 phosphorylation were indicated by a triple asterisk (***) in the case where the percent phosphorylation of MCM2 was less than 20%, by a dual asterisk (**) in the case where the percent phosphorylation of MCM2 was not less than 20% and less than 50%, and by a single asterisk (*) in the case where the percent phosphorylation of MCM2 was not less than 50% and less than 70%.

[3] = human Cdc7/human ASK complex, FITC-labeled MCM2 peptide substrate, reaction 5 hours at room temperature, read-out: Test Example 1 Cdc7 IC50 value

Sequence of human Cdc7/human ASK complex protein (O00311 whole entry): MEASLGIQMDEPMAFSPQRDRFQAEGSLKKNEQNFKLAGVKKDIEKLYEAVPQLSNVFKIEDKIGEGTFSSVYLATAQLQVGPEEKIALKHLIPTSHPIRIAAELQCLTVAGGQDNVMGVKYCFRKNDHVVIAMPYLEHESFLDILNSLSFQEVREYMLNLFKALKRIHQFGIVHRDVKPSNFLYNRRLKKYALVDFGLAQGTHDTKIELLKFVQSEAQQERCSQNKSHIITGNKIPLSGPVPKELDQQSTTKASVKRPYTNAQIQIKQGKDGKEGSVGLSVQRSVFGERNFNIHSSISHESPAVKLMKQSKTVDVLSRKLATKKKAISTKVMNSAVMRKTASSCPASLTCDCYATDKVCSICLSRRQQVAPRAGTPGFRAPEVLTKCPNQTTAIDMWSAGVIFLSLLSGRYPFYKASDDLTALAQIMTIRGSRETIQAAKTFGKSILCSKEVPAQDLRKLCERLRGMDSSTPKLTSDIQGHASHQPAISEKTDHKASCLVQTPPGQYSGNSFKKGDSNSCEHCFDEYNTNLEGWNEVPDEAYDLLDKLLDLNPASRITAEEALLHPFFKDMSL
Sequence of human Cdc7/human ASK complex protein (Q9UBU7 whole entry partner): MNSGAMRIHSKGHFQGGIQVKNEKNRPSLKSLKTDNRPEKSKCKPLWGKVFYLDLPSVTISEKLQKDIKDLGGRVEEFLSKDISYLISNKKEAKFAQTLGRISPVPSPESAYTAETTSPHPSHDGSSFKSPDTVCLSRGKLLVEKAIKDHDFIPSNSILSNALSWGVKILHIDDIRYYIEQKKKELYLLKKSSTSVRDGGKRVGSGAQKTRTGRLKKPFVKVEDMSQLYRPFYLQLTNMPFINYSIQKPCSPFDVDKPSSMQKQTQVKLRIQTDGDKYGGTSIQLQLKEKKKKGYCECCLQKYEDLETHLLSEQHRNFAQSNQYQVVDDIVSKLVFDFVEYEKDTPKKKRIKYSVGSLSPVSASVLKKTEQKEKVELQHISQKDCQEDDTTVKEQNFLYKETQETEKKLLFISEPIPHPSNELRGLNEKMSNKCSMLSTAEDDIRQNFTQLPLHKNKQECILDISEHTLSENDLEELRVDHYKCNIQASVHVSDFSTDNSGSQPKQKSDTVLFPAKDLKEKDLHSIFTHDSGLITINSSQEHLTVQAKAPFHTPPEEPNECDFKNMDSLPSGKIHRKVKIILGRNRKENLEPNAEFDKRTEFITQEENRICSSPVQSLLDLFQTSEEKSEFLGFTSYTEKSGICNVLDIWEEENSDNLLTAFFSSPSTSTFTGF

IC50 [1, 3] [nM] | IC50 [1] [nM] | Structure (SMILES) | inhibition at 0.1 µM [2] [%]
3 |  | Cc1cc(OCCO)ccc1NC1=C(C(=O)OC(C)C)C(=O)/C(=C/c2c[nH]c3ncccc23)O1 [Example 157, Isopropyl 5-[(1H-pyrrolo[2,3-b]pyridin-3-yl)methylene]-2-{[4-(2-hydroxyethoxy)-2-methylphenyl]amino}-4-oxo-4,5-dihydrofuran-3-carboxylate] | 20 to 50
3 |  | COCCOC(=O)C1=C(Nc2ccccc2Cl)O/C(=C\c2c[nH]c3ncccc23)C1=O [Example 173, 2-Methoxyethyl 5-[(1H-pyrrolo[2,3-b]pyridin-3-yl)methylene]-2-[(2-chlorophenyl)amino]-4-oxo-4,5-dihydrofuran-3-carboxylate] | < 20
4 |  | O=C1C=C(NC2CCCCCC2)O/C1=C\c1c[nH]c2ncccc12 [Example 226, 2-[(1H-Pyrrolo[2,3-b]pyridin-3-yl)methylene]-5-(cycloheptylamino)furan-3(2H)-one] | < 20
2 |  | Cc1cc(F)ccc1NC1=CC(=O)/C(=C/c2c[nH]c3ncccc23)O1 [Example 233, 2-[(1H-Pyrrolo[2,3-b]pyridin-3-yl)methylene]-5-[(4-fluoro-2-methylphenyl)amino]furan-3(2H)-one] | 20 to 50
 | 1 | O=C1C=C(Nc2ccc3[nH]ncc3c2)O/C1=C\c1c[nH]c2ncccc12 [Example 239, 2-[(1H-Pyrrolo[2,3-b]pyridin-3-yl)methylene]-5-[(5-indazolyl)amino]furan-3(2H)-one] | 20 to 50
 | 1 | Cc1ccsc1CNC1=CC(=O)/C(=C/c2c[nH]c3ncccc23)O1 [Example 242, 2-[(1H-Pyrrolo[2,3-b]pyridin-3-yl)methylene]-5-{[(3-methyl-2-thienyl)methyl]amino}furan-3(2H)-one] | < 20
4 |  | CCOC(=O)C1=C(N2CCc3ccc(OC)cc3C2)O/C(=C\c2c[nH]c3ncccc23)C1=O [Example 244, Ethyl 5-[(1H-pyrrolo[2,3-b]pyridin-3-yl)methylene]-2-(7-methoxy-3,4-dihydroisoquinolin-2(1H)-yl)-4-oxo-4,5-dihydrofuran-3-carboxylate] | < 20
8 |  | CC(C)OC(=O)C1=C(NN2CCOCC2)O/C(=C\c2c[nH]c3ncccc23)C1=O [Example 245, Isopropyl 5-[(1H-pyrrolo[2,3-b]pyridin-3-yl)methylene]-2-(morpholinoamino)-4-oxo-4,5-dihydrofuran-3-carboxylate] | < 20
8 |  | CCOC(=O)C1=C(NN2CCN(CC(F)(F)F)CC2)O/C(=C\c2c[nH]c3ncccc23)C1=O [Example 246, Ethyl 5-[(1H-pyrrolo[2,3-b]pyridin-3-yl)methylene]-4-oxo-2-{[4-(2,2,2-trifluoroethyl)piperazinyl]amino}-4,5-dihydrofuran-3-carboxylate] | < 20

Source: patent publication US8742113B2, “Furanone derivative” (SBI Biotech Co., Ltd., priority 2011, dated 2014)
